Source: US20110195910A1, “USE OF TOCOTRIENOL COMPOSITION FOR THE PREVENTION OF CANCER” (DAVOS LIFE SCIENCE PTE. LTD., priority 2008, published 2011)

How the values were obtained:
C32 cells = assay: Flow cytometry and western blotting, C32 cells; type: cell-based
Protocol: 1.1.3 Flow cytometry—Cell cycle distribution was examined using flow cytometry. Briefly, cells were harvested by trypsinization, fixed in 70% ethanol at 4° C. overnight, and then resuspended in PBS. After incubation at 4° C. for overnight, 2×10^6 cells were incubated with in 20 μg/ml propidium iodide (PI) and 2 mg RNaseA for 15 minutes at 37° C. Cells were then examined by BD SLRII cytometer and the results were analyzed using ModFit software (Becton Dickinson, Mountain View, Calif.). Data were expressed as the percentage of cell cycle distribution in the entire population.
1.1.5 Western blotting—Detailed protocols have been described previously and are known in the art. Briefly, cell lysates were prepared by suspending cell pellets in lysis buffer [50 mmol/l Tris-HCl (pH 8.0), 150 mmol/l NaCl, 1% NP40, 0.5% deoxycholate, 0.1% SDS, 1 mg/ml aprotinin, 1 μg/ml leupeptin and 1 mmol/l phenylmethylsulfonyl fluoride]. For nuclear protein extraction, NucBuster™ protein extraction kit was used. Protein concentration was measured using the DC Protein Assay kit (Bio-Rad, Hercules, Calif.). Equal amount of protein (30 μg) was loaded onto a 10% SDS polyacrylamide gel for electrophoresis and then transferred onto a polyvinylidene difluoride membrane (Amersham, Piscataway, N.J.). The membrane was then incubated with primary antibodies for 1 hr at room temperature against E-cadherin (BD Biosciences, Bedford, Mass.), α-catenin, β-catenin, γ-catenin, Id-1, Id-3, EGFR, phosphor-c-jun, phosphor-ATF2, cleaved PARP, vimentin, α-smooth muscle actin, twist (Santa Cruz Biotechnology, Calif.), phosphor-IkB-alpha (Ser32/36), phosphor-IKK alpha (Seri 80)/IKK beta (Ser181), phosphor-SAPK/JNK (Thr183/Tyr185) G9, SAPK/JNK, NF-kB p65 (5A5) (Cell Signaling Technology Inc, Beverly, Mass.), Snail (Abcam). After incubation with appropriate secondary antibodies, signals were visualized by ECL western blotting system (Amersham, Piscataway, N.J.). Expression of β-actin and histone H1 were assessed as an internal loading control for total cell lysate and nuclear protein lysate respectively.

MDA-MB-231 cells = assay: Matrigel-invasion assay, MDA-MB-231 cells; type: cell-based, human; conditions: MDA-MB-231, 24 hrs
Protocol: 1.1.4 Matrigel-invasion assay—Matrigel-invasion assay was performed according to a previously published method with modifications. Briefly, cells were pre-incubated in a serum-free RPMI 1640 medium with or without γ-T3 isomers for 24 hrs. Cells (2.5×10^5) resuspended in 500 μl of serum-free RPMI 1640 containing 0.1% bovine serum albumin (BSA) were then added to the upper chamber of a 8 μm pore size insert (Millipore, Bedford, Mass.) manually coated with Matrigel (0.5 mg/ml) (BD Bioscience, Bedford, Mass.). Five hundred μl of invasion buffer containing fibronectin (10 μg/ml) and RPMI 1640 supplemented with 10% FCS were added in the lower chamber as a chemo-attractant. Cells were incubated at 37° C. for 24 hrs in 5% CO2 humidified conditions. At the end of incubation period, inserts were stained with Diff-Quick staining solution (Fischer Scientific). Non-invaded cells on the inside of the insert were scraped off with a cotton swab. Cell invasions were then examined by a phase-contrast microscope. The invaded cells were extracted using extraction buffer (Millipore, Bedford, Mass.) and the cell number was estimated based on absorbance at 595 nm.
3.1.7 Flow cytometry was carried out as described above under item 1.1.3. Matrigel-invasion assay was carried out as described above under item 1.1.4. Western blotting was carried out as described above under item 1.1.5.

MGH-U1 cells = assay: Western blotting of CD44, MGH-U1 cells; type: cell-based; conditions: bladder cancer cells
Protocol: 5.1.5 Western blotting was carried out as described above under 1.1.5. The membrane was incubated with primary antibodies directed against CD133 (Miltenyi Biotec, Auburn, Calif.), Bcl-2, PARP, cleaved caspase 3, 7, 9 (Cell Signaling, Technology Inc, Beverly, Mass.), CD44 and β-actin (Santa Cruz Biotechnology, Santa Cruz, Calif.). After washing with TBS-T, the membrane was incubated with secondary antibody against either mouse or rabbit IgG and the signals were visualized using ECL plus western blotting system (Amersham, Piscataway, N.J.).

Compound: CC(C)=CCC/C(C)=C/CC/C(C)=C/CCC1(C)CCc2cc(O)c(C)c(C)c2O1 (stereo not shown) [γ-T3, 7,8-dimethyltocotrienol]
- JNK phosphorylation (C32 cells; C32): dosage-dependent increase in JNK phosphorylation activities
- NF-κB p65 activity (nuclear translocation) (C32 cells; C32): suppressed constitutive NF-κB p65 activity in a dose-dependent manner
- activation of pro-apoptotic proteins (cleaved products) (C32 cells; C32, different γ-T3 dosage, 24-hr): activation of procaspase 3, 7, 9 as well as PARP
- Id-1 and Id-3 expression levels (EGF-R similar) (C32 cells; C32, increasing dosages): significantly suppressed to almost undetectable level
- sub-G1 cell population (flow cytometry) (C32 cells; melanoma cells, γ-T3 at IC50, 24-hr): induction of sub-G1 cell population
- invasion capability compared to untreated control (MDA-MB-231 cells): at least 2 -time lower
- CD44 expression (MGH-U1 cells): downregulate CD44 expression
